In brackets after ≈: the same amount, converted by molar mass.

The test system of assay [1] is Trichophyton mentagrophytes. The experiment in a line: Series dilution test in vitro, minimum inhibitory concentration, Trichophyton mentagrophytes. Type of assay: cell-based. Conditions: 28° C, 24 to 96 hours. As for the experimental part: (§1) Determination of the antimycotic spectrum of activity in vitro by the series dilution test.
(§2) The nutrient media used were Sabouraud's milieu d'epreuve for dermatophyties and molds and meat broth-glucose bouillon for blastomyces and biphase fungi.
(§3) The incubation temperature was 28° C and the incubation time was 24 to 96 hours.

The subject of assay [2] is Candida Albicans. The experiment in a line: Series dilution test in vitro, minimum inhibitory concentration, Candida albicans. The class given is cell-based. The note with it: 28° C, 24 to 96 hours. As for the experimental part: as §1, §2, §3
A further assay deals with Aspergillus niger. The experiment in a line: Series dilution test in vitro, minimum inhibitory concentration, Aspergillus niger. The class given is cell-based. Conditions: 28° C, 24 to 96 hours. As for the experimental part:
as §1, §2, §3

In assay [3] the test system is Candida albicans. Description: Candidosis in mice, oral treatment. The class given is in vivo, Mice of the type SPF-C1. Conditions: orally 50, 75, 100 and 150 mg/kg, one hour before and 7 hours after infection; untreated control ~5% survival. As for the experimental part: Description of the experiment:
Mice of the type SPF-C1 were infected intravenously with 1-2 × 10^6 logarithmically-growing Candida cells suspended in physiological sodium chloride solution.
One hour before, and 7 hours after, the infection the animals are treated orally with 50, 75, 100 and 150 mg/kg of body weight of the preparations.
Untreated animals died of the infection 3 to 6 days after infection. The survival rate on the 6th day after infection was ~ 5% in untreated control animals.

`Cc1cccc(C(c2ccccc2)(c2ccccc2)n2ccnc2)c1C` [Example 1, 1-(2,3-dimethylphenyl-diphenyl)-methyl-imidazole]: the MIC was under 1 µg/mL in assay [1] (n.s. = no added serum); 4 µg/mL (≈ 11.8 µM) in assay [1] (w.s. = with 30% serum added); 1 µg/mL (≈ 2.95 µM) in the assay on Candida Albicans [2] (n.s. = no added serum); 4 µg/mL (≈ 11.8 µM) in the assay with Aspergillus niger (n.s. = no added serum); 40 µg/mL (≈ 118 µM) against Aspergillus niger (w.s. = with 30% serum added). Further, the “Action on candidosis in Mice (survival on the 6th day after infection)” value (from here on “Action on candidosis in Mice”) in the assay with Candida albicans [3] is “+++++ (very good action = >90% survival on the 6th day after infection)”.
Take `Cc1ccc(C(c2ccccc2)(c2ccccc2)n2ccnc2)c(C)c1` [Example 2, 1-(2,4-Dimethylphenyl-diphenyl)-methyl-imidazole]: the “Action on candidosis in Mice” value in the assay on Candida albicans [3] is listed as “+++++ (very good action = >90% survival on the 6th day after infection)”.
Take `Cc1ccc(C)c(C(c2ccccc2)(c2ccccc2)n2ccnc2)c1` [Example 3, 1-(2,5-Dimethylphenyl-diphenyl)-methyl-imidazole]: the MIC is under 1 µg/mL in assay [1] (n.s. = no added serum), 40 µg/mL (≈ 118 µM) in assay [1] (w.s. = with 30% serum added) and 1 µg/mL (≈ 2.95 µM) in the assay with Candida Albicans [2] (n.s. = no added serum). Further, the “Action on candidosis in Mice” value with Candida albicans [3] was “++++ (good action = >80% survival on the 6th day after infection)”.
With `Cc1cc(Cl)ccc1C(c1ccccc1)(c1ccccc1)n1ccnc1` [Example 4, 1-(2-Methyl-4-chlorophenyl-diphenyl)-methyl-imidazole], the minimal inhibitory concentration (MIC) was under 1 µg/mL in assay [1] (n.s. = no added serum), 10 µg/mL (≈ 27.9 µM) in assay [1] (w.s. = with 30% serum added), 1 µg/mL (≈ 2.79 µM) with Candida Albicans [2] (n.s. = no added serum) and 40 µg/mL (≈ 111 µM) in the assay with Candida Albicans [2] (w.s. = with 30% serum added). Further, the “Action on candidosis in Mice” value with Candida albicans [3] is “+++++ (very good action = >90% survival on the 6th day after infection)”.
Consider `Clc1cccc(C(c2ccccc2)(c2ccccc2)n2ccnc2)c1Cl` [Example 6, 1-(2,3-Dichlorophenyl-diphenyl)-methyl-imidazole], for which the “Action on candidosis in Mice” value in the assay on Candida albicans [3] is reported as “+++++ (very good action = >90% survival on the 6th day after infection)”.
For the molecule `Clc1cccc(Cl)c1C(c1ccccc1)(c1ccccc1)n1ccnc1` [Example 7, 1-(2,6-Dichlorophenyl-diphenyl)-methyl-imidazole], the MIC was under 1 µg/mL in assay [1] (n.s. = no added serum), 4 µg/mL (≈ 10.5 µM) in assay [1] (w.s. = with 30% serum added) and 1 µg/mL (≈ 2.64 µM) in the assay on Candida Albicans [2] (n.s. = no added serum). Also, in the assay with Candida albicans [3], the “Action on candidosis in Mice” value is reported as “+++++ (very good action = >90% survival on the 6th day after infection)”.
Consider `Cc1ccccc1C(c1ccccc1)(c1ccccc1C)n1ccnc1` [Example 8, 1-(2-Methylphenyl-2'-methylphenyl-phenyl)-methyl-imidazole], for which the figures for the minimal inhibitory concentration (MIC) (in assay [1] (n.s. = no added serum); in assay [1] (w.s. = with 30% serum added); against Candida Albicans [2] (n.s. = no added serum)) were under 1 µg/mL, 10 µg/mL (≈ 29.5 µM) and 1 µg/mL (≈ 2.95 µM), respectively. Also, the “Action on candidosis in Mice” value in the assay with Candida albicans [3] is “+++++ (very good action = >90% survival on the 6th day after infection)”.
On to `Clc1ccccc1C(c1ccccc1)(c1ccccc1Cl)n1ccnc1` [Example 9, 1-(2-Chlorophenyl-2'-chlorophenyl-phenyl)-methyl-imidazole], for which the minimal inhibitory concentration (MIC) in assay [1] (n.s. = no added serum) is under 1 µg/mL; in assay [1] (w.s. = with 30% serum added) it was 4 µg/mL (≈ 10.5 µM); in the assay on Candida Albicans [2] (n.s. = no added serum), 1 µg/mL (≈ 2.64 µM); against Aspergillus niger (w.s. = with 30% serum added), 10 µg/mL (≈ 26.4 µM). Moreover, in the assay with Candida albicans [3], the “Action on candidosis in Mice” value is reported as “++++ (good action = >80% survival on the 6th day after infection)”.

For the origin of these results see US4117142A, “Disubstituted triphenylmethylmidazoles for treating mycotic infections” (Bayer Aktiengesellschaft, priority 1972, dated 1978).
